Source: Sander's compilation of Henry's law constants

Experiments:
[1] = Henry solubility constant Hcp at 298.15 K (mol/(m3 Pa))
[2] = Henry solubility constant Hcp at 293 K (mol/(m3 Pa))
[3] = Henry solubility constant Hcp at 296 K (mol/(m3 Pa))
[4] = Henry solubility constant Hcp at 295 K (mol/(m3 Pa)); details: reference: de Wolf and Lieder (1998)
[5] = Henry solubility constant Hcp at 310 K (mol/(m3 Pa)); details: reference: McIntosh and Heffron (2000)

Cc1ccccc1 [methylbenzene]
0.00085: Henry solubility constant Hcp at 310 K [5]
0.002: Henry solubility constant Hcp ([1]; reference: Hartkopf and Karger (1973)) | Henry solubility constant Hcp at 295 K [4]
0.0015: Henry solubility constant Hcp ([1]; reference: Allen et al. (1998)) | Henry solubility constant Hcp ([1]; reference: Ervin et al. (1980)) | Henry solubility constant Hcp ([1]; reference: Ettre et al. (1993)) | Henry solubility constant Hcp ([1]; reference: Garbarini and Lion (1985)) | Henry solubility constant Hcp ([1]; reference: Görgényi et al. (2002)) | Henry solubility constant Hcp ([1]; reference: Kish et al. (2013)) | Henry solubility constant Hcp ([1]; reference: Kutsuna and Kaneyasu (2021)) | Henry solubility constant Hcp ([1]; reference: Li et al. (2008)) | Henry solubility constant Hcp ([1]; reference: Lin and Chou (2006)) | Henry solubility constant Hcp ([1]; reference: Mackay et al. (1979)) | Henry solubility constant Hcp ([1]; reference: Perlinger et al. (1993)) | Henry solubility constant Hcp ([1]; reference: Ramachandran et al. (1996)) | Henry solubility constant Hcp ([1]; reference: Robbins et al. (1993)) | Henry solubility constant Hcp ([1]; reference: Sieg et al. (2009)) | Henry solubility constant Hcp ([1]; reference: Tsibul’skii et al. (1979)) | Henry solubility constant Hcp at 296 K ([3]; reference: Anderson (1992)) | Henry solubility constant Hcp at 296 K ([3]; reference: David et al. (2000))
0.0013: Henry solubility constant Hcp ([1]; reference: Lau et al. (2010)) | Henry solubility constant Hcp ([1]; reference: Park et al. (1997))
0.0019: Henry solubility constant Hcp ([1]; reference: Vane and Giroux (2000)) | Henry solubility constant Hcp ([1]; reference: Vitenberg et al. (1975))
0.0037: Henry solubility constant Hcp at 293 K ([2]; reference: Yu (1992))
0.0017: Henry solubility constant Hcp ([1]; reference: Bakierowska and Trzeszczyński (2003)) | Henry solubility constant Hcp ([1]; reference: Bierwagen and Keller (2001)) | Henry solubility constant Hcp ([1]; reference: Lee et al. (2013)) | Henry solubility constant Hcp ([1]; reference: Peng and Wan (1997)) | Henry solubility constant Hcp ([1]; reference: Warner et al. (1980)) | Henry solubility constant Hcp ([1]; reference: Wasik and Tsang (1970)) | Henry solubility constant Hcp at 293 K ([2]; reference: Yurteri et al. (1987))
0.0012: Henry solubility constant Hcp ([1]; reference: Schoene and Steinhanses (1985))
0.0014: Henry solubility constant Hcp ([1]; reference: Bissonette et al. (1990)) | Henry solubility constant Hcp ([1]; reference: Lei et al. (2004)) | Henry solubility constant Hcp ([1]; reference: Lodge and Danso (2007)) | Henry solubility constant Hcp ([1]; reference: Turner et al. (1996))
0.0021: Henry solubility constant Hcp ([1]; reference: Bobadilla et al. (2003)) | Henry solubility constant Hcp ([1]; reference: Peng and Wan (1998))
0.0016: Henry solubility constant Hcp ([1]; reference: Brown and Wasik (1974)) | Henry solubility constant Hcp ([1]; reference: Keeley et al. (1988)) | Henry solubility constant Hcp ([1]; reference: Nielsen et al. (1994)) | Henry solubility constant Hcp ([1]; reference: Sanemasa et al. (1981)) | Henry solubility constant Hcp at 296 K ([3]; reference: Miller and Stuart (2000))
